Experimental findings from US20160120915A1, “METHODS FOR MANIPULATING IMMUNE RESPONSES BY ALTERING MICROBIOTA” (NEW YORK UNIVERSITY, priority 2013, published 2016) are described below.

Structures can show the parent of a compound that is named as a salt.

Assay [1] concerns terminal ileum. Description: PAT: ileal expression by qPCR in 6-week mice. It is filed as in vivo, C57BL/6 mice. The following applies: 6-week male mice, 3 pulses, vs control. As to the method:
Total RNA was extracted from mouse tissues using the RNeasy Mini Kit (Qiagen), according to the manufacturer's instructions. Total RNA was reverse transcribed to cDNA using the Verso™ cDNA Synthesis Kit (Thermo Scientific). To generate standards for expression analysis of each target gene, the cDNA region of interest was PCR-amplified and the PCR product was cloned into pGEM-T easy (Promega). qPCR was performed with LightCycler 480 SYBR Green I Master mix (Roche) and run in a LightCycler 480 system (Roche). Target mRNA was normalized to GAPDH mRNA as an internal control in each sample.
C57BL/6 mice were fed a standard diet after weaning, and exposed to 3 pulses of therapeutic dose antibiotics (Amoxicillin or Tylosin), or no antibiotics, via their drinking water, all before 6 weeks of age. Mice were sacrificed at 6 weeks of age.
The distal ileum (1 cm) without Peyer's Patches was collected from each mouse for RNA extraction and kept in RNAlater (Ambion) overnight at 4° C. Samples were stored at −80° C. until RNA extraction was performed.
Panel A: Mice were exposed to 3 pulses of antibiotics (Amoxicillin or Tylosin), or no antibiotics, via breast milk or drinking water at the indicated time points. Panel B: Male mice, including 5 Control, 4 Amoxicillin, and 6 Tylosin, were fed a normal diet. They were sacrificed at 6 weeks of age and the terminal[1 cm] ileum without Peyer's Patches [TI-] was collected.
Ileal expression of T-bet and IFN-γ [Th1], GATA3 and IL-4 [Th2], Foxp3, and TGFβ1 [Treg], and RORγt, IL-17A, and IL-17F [Th17] (Control n=5, Amoxicillin n=4, Tylosin n=6) was quantitated with qPCR and normalized by GAPDH expression. Expression of T-bet and IFNγ [Th1] (p<0.05) and IL-17A and IL-17F [Th17] […] Foxp3 and RORγt were lower in Tylosin than control. This example extends the earlier observation that continuous antibiotics affect ileal immune cell populations and effectors by showing that pulses are sufficient to produce similar effects.

For assay [2], the system named is Candidatus Arthromitus (segmented filamentous bacteria, SFB). As to the kind of experiment: SFB relative abundance by 16S rRNA sequencing in microbiota donors. It counts as in vivo, C57BL6J mice. Conditions: STAT donors, all time points. The text has this: As above, mice were weaned onto normal chow at 4 weeks and switched to HFD at 6 weeks of age. Cecal microbiota was collected at 18 weeks of age and transferred to 3 to 4-week old germ-free Swiss-Webster mice, which were then housed in specific pathogen-free (SPF) conditions and fed HFD. Longitudinal fecal samples were collected and microbial communities were profiled by 16S rRNA sequencing using standard universal primers (Caporaso et al., ISMEJ 2012, 8:1621-4) at an average depth of approximately 5,800 sequences per sample.
Taxonomy was assigned based on the Green Genes May 2013 database, and the percentage of sequences classified as Candidatus Arthromitus, the candidate genus name for segmented filamentous bacteria (SFB), was calculated. […] SFB was present in all 3 control donor mice at levels >1%. SFB was undetectable in STAT donors at all time points, and in the Control donors following the switch to a HFD (8 weeks and beyond). SFB was nearly undetectable in microbiota recipients. Only one STAT-recipient mouse had SFB detected, and it was only one sequence that was classified as SFB out of 7,657 total sequences. SFB was not detected in any of the 7 Control or the other 7 STAT microbiota-recipients. […] Other microbiota taxa are thus important in the transferred phenotype.

Assay [3] deals with CD3+CD4+ lamina propria lymphocytes. As to the kind of experiment: Flow cytometry of lamina propria lymphocytes for Th17-produced cytokines, 8-week STAT. It counts as in vivo, C57BL/6J mice. The following applies: small and large intestine, STAT vs control. The source says:
Lamina propria lymphocytes (LPL) from both small and large intestine were isolated from 8-week STAT mice (Control n=4, STAT n=4) and analyzed for intracellular, Th17-produced cytokines by flow cytometry. Plots gated on CD3+CD4+LPL. IL-17^+ and IL-22^+ cells were decreased in STAT compared to control mice in both the small and large intestine (FIG. 5).
Small and large intestines of mice were dissected, and all mesenteric fat and Peyer's patches were removed. Intestines were fileted for removal of stool, cut into 2 cm pieces, and washed with PBS. Tissues were transferred to tubes with 10 ml 1 mM DTT/PBS, shaken at RT for 10 minutes, and transferred to tubes with 30 mM EDTA and 10 mM HEPES in PBS. Intestines were then shaken at 37° C. for 20 minutes and washed in complete RPMI. The small and large intestines were digested at 37 C for 1.5 hours in 100 units/ml collagenase Type VIII (Sigma) and 150 μg/ml DNase (Sigma) in complete RPMI. Cells were filtered through a 50 micron filter, washed with 5 ml PBS, and pelleted. Cells were then resuspended in 40% Percoll (GE Healthcare), under-layed with 80% Percoll, and centrifuged at 2,200 rpm for 20 min at RT. […]
Cells were stimulated with phorbol 12-myristate 13-acetate (PMA) and ionomycin for 4 hours at 37 C with the addition of GolgiPlug (BD). […] Cells were acquired on an LSRII (BD) and analyzed with FlowJo (Tree Star, Inc.) software.

`CC[C@H]1OC(=O)C[C@@H](O)[C@H](C)[C@@H](O[C@@H]2O[C@H](C)[C@@H](O[C@H]3C[C@@](C)(O)[C@@H](O)[C@H](C)O3)[C@H](N(C)C)[C@H]2O)[C@@H](CC=O)C[C@@H](C)C(=O)/C=C/C(C)=C/[C@@H]1CO[C@@H]1O[C@H](C)[C@@H](O)[C@@H](OC)[C@H]1OC` [Tylosin, Tylosin tartrate]: in assay [1], the “ileal expression of Foxp3” value was “lower” and the “ileal expression of RORγt” value was “lower”. Also, in assay [1] (p<0.05), the “ileal expression of IFNγ [Th1]” value is “significantly lower”, the “ileal expression of IL-17A [Th17]” value was “significantly lower”, the “ileal expression of IL-17F [Th17]” value is given as “significantly lower” and the “ileal expression of T-bet [Th1]” value was “significantly lower”.
Consider `CC1(C)S[C@@H]2[C@H](NC(=O)COc3ccccc3)C(=O)N2[C@H]1C(=O)[O-].[K+]` [STAT, penicillin VK], for which, in assay [2], the SFB relative abundance entry is listed as “undetectable”. Moreover, in assay [3], the “IL-17+ cells among CD3+CD4+ LPL” value was “decreased” and the “IL-22+ cells among CD3+CD4+ LPL” value is recorded as “decreased”.
